Like-named read-outs stand apart in the source and are kept apart here.
Columns and labels:
[1] = biological target: T1, PIM1 (Homo sapiens, UniProt P11309); parameters: method as in PMID 22387500; settings: 10 µM inhibitor; cited from earlier work
[2] = biological target: T2, FLT4/VEGFR3 (Homo sapiens, UniProt P35916); parameters: purchased Reaction Biology Corp; method as in PMID 22387500; settings: 10 µM inhibitor; cited from earlier work
[3] = test system: PKD/PRKD2; parameters: method as in PMID 22387500; settings: 10 µM inhibitor; cited from earlier work
[4] = biological target: T3, LCK (Homo sapiens, UniProt P06239); parameters: method as in PMID 22387500; settings: 10 µM inhibitor; cited from earlier work
T3 sequence (P06239 whole entry): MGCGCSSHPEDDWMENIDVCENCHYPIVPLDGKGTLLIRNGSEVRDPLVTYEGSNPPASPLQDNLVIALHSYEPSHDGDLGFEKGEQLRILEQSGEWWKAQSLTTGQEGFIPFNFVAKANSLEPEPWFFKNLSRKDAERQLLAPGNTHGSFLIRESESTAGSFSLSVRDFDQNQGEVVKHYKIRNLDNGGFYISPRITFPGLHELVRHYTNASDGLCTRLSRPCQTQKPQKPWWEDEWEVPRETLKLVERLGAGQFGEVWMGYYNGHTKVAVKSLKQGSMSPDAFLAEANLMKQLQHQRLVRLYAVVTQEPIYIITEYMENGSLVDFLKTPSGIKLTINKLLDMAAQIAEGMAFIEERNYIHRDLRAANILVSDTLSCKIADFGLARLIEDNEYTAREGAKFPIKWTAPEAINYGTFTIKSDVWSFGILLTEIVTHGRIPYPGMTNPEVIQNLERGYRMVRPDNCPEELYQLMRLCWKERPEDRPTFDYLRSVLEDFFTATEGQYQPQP

[5] = biological target: T4, Aurora A (Homo sapiens, UniProt O14965); parameters: method as in PMID 22387500; settings: 10 µM inhibitor; cited from earlier work
T4 construct: purchased Reaction Biology Corp
T4 sequence (O14965 1-403): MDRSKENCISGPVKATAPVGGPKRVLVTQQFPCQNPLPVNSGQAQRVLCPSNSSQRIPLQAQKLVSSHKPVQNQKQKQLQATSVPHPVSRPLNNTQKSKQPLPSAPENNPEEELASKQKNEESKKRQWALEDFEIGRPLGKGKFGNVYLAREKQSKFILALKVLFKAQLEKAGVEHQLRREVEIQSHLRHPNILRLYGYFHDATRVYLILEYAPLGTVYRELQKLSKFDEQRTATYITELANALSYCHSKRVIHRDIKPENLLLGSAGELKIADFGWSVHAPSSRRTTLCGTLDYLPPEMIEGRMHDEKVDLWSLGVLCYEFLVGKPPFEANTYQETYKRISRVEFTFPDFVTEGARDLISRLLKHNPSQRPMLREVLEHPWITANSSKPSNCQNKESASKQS

[6] = biological target: T5, KDR/VEGFR2 (Homo sapiens, UniProt P35968); parameters: purchased Reaction Biology Corp; method as in PMID 22387500; settings: 10 µM inhibitor; cited from earlier work
T5 sequence (P35968 20-1356): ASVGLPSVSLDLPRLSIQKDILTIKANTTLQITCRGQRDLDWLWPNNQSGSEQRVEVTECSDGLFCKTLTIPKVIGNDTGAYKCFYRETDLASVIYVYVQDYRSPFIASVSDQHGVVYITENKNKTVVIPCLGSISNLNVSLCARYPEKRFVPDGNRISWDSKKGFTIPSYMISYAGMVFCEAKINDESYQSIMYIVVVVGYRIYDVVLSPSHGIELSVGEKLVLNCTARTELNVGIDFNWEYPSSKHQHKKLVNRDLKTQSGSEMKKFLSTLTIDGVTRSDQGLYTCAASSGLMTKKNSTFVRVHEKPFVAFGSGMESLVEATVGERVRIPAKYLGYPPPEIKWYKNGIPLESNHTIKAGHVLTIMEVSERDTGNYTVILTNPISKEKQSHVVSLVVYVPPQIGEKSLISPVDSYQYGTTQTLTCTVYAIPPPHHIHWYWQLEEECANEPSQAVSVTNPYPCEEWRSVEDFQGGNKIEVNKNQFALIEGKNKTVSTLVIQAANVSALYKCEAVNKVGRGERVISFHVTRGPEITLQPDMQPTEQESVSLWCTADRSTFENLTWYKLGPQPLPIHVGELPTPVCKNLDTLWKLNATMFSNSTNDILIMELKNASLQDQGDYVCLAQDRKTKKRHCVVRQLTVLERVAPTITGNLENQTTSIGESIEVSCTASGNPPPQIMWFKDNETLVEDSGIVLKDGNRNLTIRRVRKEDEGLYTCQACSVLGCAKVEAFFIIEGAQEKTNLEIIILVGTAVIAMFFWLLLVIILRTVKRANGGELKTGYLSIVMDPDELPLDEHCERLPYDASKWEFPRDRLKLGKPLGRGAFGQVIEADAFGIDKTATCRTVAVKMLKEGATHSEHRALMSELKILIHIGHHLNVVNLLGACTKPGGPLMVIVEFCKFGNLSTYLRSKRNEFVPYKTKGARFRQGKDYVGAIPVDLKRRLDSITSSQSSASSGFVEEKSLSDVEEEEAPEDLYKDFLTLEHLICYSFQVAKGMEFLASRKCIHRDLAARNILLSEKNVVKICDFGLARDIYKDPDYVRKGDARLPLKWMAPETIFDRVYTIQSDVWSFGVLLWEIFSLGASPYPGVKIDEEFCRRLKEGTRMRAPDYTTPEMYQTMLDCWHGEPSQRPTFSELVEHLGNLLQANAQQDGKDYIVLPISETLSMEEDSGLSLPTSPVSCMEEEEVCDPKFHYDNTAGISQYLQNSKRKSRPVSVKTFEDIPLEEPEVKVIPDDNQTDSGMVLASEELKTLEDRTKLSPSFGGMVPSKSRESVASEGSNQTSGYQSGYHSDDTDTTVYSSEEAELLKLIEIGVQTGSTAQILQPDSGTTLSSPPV

[7] = biological target: T6, SKG1 (Homo sapiens, UniProt O00141); parameters: method as in PMID 22387500; settings: 10 µM inhibitor; cited from earlier work
T6 construct: purchased Reaction Biology Corp
T6 sequence (O00141 whole entry): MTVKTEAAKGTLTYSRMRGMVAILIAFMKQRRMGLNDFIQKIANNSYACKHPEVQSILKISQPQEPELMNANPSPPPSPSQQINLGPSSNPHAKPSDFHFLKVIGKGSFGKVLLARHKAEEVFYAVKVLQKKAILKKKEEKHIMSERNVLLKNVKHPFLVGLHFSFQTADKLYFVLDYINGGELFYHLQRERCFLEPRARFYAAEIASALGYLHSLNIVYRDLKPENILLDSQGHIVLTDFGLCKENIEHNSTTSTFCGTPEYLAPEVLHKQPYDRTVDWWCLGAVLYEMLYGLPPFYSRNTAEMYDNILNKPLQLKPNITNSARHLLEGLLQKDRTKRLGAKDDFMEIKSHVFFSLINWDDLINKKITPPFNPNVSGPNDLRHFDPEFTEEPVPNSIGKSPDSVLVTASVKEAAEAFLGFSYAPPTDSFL

[8] = biological target: T7, human protein kinase CK2 holoenzyme (CK2α2β2) (Homo sapiens, UniProt P68400); parameters: method as in PMID 22387500; settings: cited from earlier work
T7 construct: made in house
T7 sequence (P68400 whole entry): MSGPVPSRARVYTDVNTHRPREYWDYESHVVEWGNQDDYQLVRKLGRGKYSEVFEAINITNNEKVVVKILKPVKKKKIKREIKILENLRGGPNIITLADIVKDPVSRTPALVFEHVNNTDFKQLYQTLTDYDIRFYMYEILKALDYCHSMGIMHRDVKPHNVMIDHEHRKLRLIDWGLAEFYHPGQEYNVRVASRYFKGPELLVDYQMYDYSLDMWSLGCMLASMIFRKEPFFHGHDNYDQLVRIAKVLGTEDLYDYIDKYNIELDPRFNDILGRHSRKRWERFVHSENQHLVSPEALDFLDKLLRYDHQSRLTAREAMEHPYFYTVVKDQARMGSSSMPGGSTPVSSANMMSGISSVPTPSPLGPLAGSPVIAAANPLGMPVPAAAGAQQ
T7 sequence (P67870 whole entry partner): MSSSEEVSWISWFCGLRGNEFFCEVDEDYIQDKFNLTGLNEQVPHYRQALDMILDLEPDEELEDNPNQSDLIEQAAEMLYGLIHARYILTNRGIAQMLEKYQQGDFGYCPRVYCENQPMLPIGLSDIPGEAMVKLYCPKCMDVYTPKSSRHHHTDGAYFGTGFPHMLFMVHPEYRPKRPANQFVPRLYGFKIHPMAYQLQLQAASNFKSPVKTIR

[9] = biological target: T3, LCK; test: biochemical
Experimental: (§1) For this purpose 61 kinases from different representative subgroups (and CK2α and CK2α’) were tested. Testing was performed with inhibitor concentrations of 10 µM and an ATP concentration of 10 μM. The residual enzyme activity as obtained was set in relation to a control without inhibitor.

[10] = test system: CK2α; settings: towards CK2α, radiometric assay; cited from earlier work
[11] = biological target: C-Met (Homo sapiens, UniProt P08581); settings: 10 µM inhibitor, 10 µM ATP
Experimental: as §1

[12] = biological target: T1, PIM1; settings: 10 µM inhibitor, 10 µM ATP
Experimental: as §1

[13] = biological target: PKA (Homo sapiens, UniProt P17612); settings: 10 µM inhibitor, 10 µM ATP
Experimental: as §1

[14] = biological target: T2, FLT4/VEGFR3; settings: 10 µM inhibitor, 10 µM ATP
Experimental: as §1

[15] = biological target: T5, KDR/VEGFR2; settings: 10 µM inhibitor, 10 µM ATP
Experimental: as §1

T1 sequence (P11309 whole entry): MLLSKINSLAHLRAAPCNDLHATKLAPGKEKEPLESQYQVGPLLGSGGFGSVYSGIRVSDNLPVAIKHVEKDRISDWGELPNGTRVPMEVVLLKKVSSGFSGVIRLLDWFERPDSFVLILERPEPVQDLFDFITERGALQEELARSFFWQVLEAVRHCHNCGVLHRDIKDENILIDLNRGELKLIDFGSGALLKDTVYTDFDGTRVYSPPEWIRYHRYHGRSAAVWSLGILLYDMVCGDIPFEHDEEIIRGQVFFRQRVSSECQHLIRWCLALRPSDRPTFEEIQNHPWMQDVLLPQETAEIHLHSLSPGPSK
T2 sequence (P35916 25-1363): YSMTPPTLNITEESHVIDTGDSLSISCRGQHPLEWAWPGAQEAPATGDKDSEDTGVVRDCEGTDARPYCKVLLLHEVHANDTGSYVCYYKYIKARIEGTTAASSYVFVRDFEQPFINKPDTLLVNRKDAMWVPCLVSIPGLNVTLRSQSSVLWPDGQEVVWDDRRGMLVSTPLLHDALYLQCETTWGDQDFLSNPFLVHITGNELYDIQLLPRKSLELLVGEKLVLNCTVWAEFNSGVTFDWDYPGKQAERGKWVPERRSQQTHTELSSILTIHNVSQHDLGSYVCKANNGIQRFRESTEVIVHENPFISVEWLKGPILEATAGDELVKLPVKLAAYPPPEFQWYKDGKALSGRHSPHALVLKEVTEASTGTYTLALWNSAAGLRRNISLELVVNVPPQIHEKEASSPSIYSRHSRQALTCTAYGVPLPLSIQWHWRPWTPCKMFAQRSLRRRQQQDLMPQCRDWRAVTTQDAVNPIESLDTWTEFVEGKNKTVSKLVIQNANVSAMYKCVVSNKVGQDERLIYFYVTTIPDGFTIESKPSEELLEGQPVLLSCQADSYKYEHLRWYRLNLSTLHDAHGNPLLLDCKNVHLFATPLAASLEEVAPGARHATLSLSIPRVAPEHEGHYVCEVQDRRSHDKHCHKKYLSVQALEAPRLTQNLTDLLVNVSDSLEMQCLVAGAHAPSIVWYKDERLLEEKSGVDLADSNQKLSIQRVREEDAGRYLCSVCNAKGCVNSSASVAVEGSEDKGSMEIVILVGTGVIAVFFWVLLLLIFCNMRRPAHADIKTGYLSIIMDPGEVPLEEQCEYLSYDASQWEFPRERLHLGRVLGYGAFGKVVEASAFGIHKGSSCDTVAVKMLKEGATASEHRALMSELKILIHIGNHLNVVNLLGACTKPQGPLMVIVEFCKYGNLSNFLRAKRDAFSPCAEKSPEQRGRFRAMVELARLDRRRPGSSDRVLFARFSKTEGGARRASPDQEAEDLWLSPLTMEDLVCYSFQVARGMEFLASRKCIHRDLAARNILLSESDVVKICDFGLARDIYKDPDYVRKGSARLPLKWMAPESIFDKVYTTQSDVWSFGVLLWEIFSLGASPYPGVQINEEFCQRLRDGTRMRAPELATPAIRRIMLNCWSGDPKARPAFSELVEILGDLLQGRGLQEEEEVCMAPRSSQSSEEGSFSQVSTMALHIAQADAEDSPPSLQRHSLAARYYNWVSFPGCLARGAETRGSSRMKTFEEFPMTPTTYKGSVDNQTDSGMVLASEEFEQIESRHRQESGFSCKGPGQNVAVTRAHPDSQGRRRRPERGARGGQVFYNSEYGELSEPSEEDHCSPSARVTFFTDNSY

| SMILES | kinase inhibited more than 70% at 10 µM concentration [1] | kinase inhibited more than 70% at 10 µM concentration [2] | kinase inhibited more than 70% at 10 µM concentration [3] | kinase inhibited more than 70% at 10 µM concentration [4] | kinase inhibited more than 70% at 10 µM concentration [5] | kinase inhibited more than 70% at 10 µM concentration [6] | kinase inhibited more than 70% at 10 µM concentration [7] | Ki ([8]; ATP concentrations 6 µM to 400 µM) | IC50 ([8]; earlier work of the authors) | inhibition at 10 µM [9] | IC50 [10] | kinase inhibited more than 70% at 10 µM concentration [11] | kinase inhibited more than 70% at 10 µM concentration [12] | kinase inhibited more than 70% at 10 µM concentration [13] | kinase inhibited more than 70% at 10 µM concentration [14] | kinase inhibited more than 70% at 10 µM concentration [15] |
| --- | --- | --- | --- | --- | --- | --- | --- | --- | --- | --- | --- | --- | --- | --- | --- | --- |
| Cc1ccc(NC=C2C(=O)CCc3c2oc2c(Cl)c(Cl)c(O)cc32)cc1 [4b, 6,7-dichloro-1,4-dihydro-8-hydroxy-4-[(4-methylphenylamino)methylene]dibenzo[b,d]furan-3(2H)-one] | PIM1 | FLT4/VEGFR3 | PKD/PRKD2 | LCK | Aurora A | KDR/VEGFR2 | SKG1 | 15 nM | 29 nM | – | – | – | – | – | – | – |
| COc1ccc(/N=C/c2c(O)ccc3c2oc2cc(Cl)c(O)c(Cl)c23)cc1 [compound 5, (E)-1,3-dichloro-6-[(4-methoxyphenylimino)methyl]dibenzo[b,d]furan-2,7-diol] | – | – | – | – | – | – | – | – | – | 68% | 7 nM | C-Met | PIM1 | PKA | FLT4/VEGFR3 | KDR/VEGFR2 |

From publication PMC5874719, “A π-Halogen Bond of Dibenzofuranones with the Gatekeeper Phe113 in Human Protein Kinase CK2 Leads to Potent Tight Binding Inhibitors” (Pharmaceuticals, 2018)
